Legend:
[1] = test system: hESC; assay: hESC differentiation into neuroectoderm / neural precursor cells (nestin immunoblot, rosettes); format: cell-based, human
Method: FIG. 5A. hESC were grown in TESR1 media-Li in the presence of E2 (10 nM), P4 (2 μM) or E2 (10 nM)+P4 (2 μM) for 6 d and cell proliferation measured using the trypan blue assay. Results are expressed as mean±SEM, n=3 (*p<0.05, **p<0.005 compared to 6 d control). FIG. 5B. Equal amounts of protein from cell lysates of hESC treated for 9 d as described above were analyzed by immunoblot using a monoclonal antibody against nestin (clone 10C2; Chemicon, CA, USA). FIG. 5C. hESC were cultured for 4 days, enzymatically lifted and placed into EB media (containing serum) and rocked gently for an additional 4 days prior to being placed in one of two neural induction medias for an additional 11 days, where P4 was either absence or present. During this transition from EB to rosettes, colony structures treated with P4 also were treated with a Progesterone Receptor (PR) antagonist (RU-486; 20 μM) for 11 days. At 19 day, morphological observation and molecular analysis were performed. (i) Control structure, a minimum of three rosette structures were observed inside the cystic cavity (arrows). (ii) hESC structure in the absence of P4 (no rosettes) (iii) PR antagonist treated rosettes (no rosettes; RU-486, 20 μM). FIG. 5D. Equal amounts of protein from cell lysates of above structures were analyzed by immunoblot for nestin.
These structures are predominantly composed of NPCs (NSCs) akin to those that form the neural tube and can be further differentiated into various neural lineages. To understand which hormonal signals regulate the specification of hESC into NSCs, we closely examined the composition of the medias and supplements that had been developed by trial and error for the maintenance of hESC, and their differentiation first into embryoid bodies (EBs) and then into NPC. We identified P4 in the B27 supplement as being necessary and sufficient for the survival and differentiation of late embryonic neurons in vitro (E18 primary hippocampal/cortical/striatal neurons). […]

[2] = test system: male Sprague Dawley rats with craniectomy or controlled cortical impact (CCI) injury; assay: Plasma steroid concentrations after craniectomy (Sham) or CCI injury, hCG with or without RU-486; format: in vivo, rat
Method: Male Sprague Dawley (SD) rats (n=58, 5-6-months old) were acquired from Harlan Laboratories Inc. (Madison, WI) and acclimated to the environment over 2 days. Rats were then weighed and handled for no less than 5 min each for 5 consecutive days and daily thereafter while being housed, fed and maintained on a 12-hour reverse light/dark cycle. The Institutional Animal Care and Use Committee (Animal Component of Research Protocol) at the William S. Middleton Veterans Administration Hospital approved the procedures used in this study and the research was conducted in an AAALAC-approved facility. Experimenters were blinded as to the identity of the animals throughout injections, blood collections, and body weight and hormone data analyses.
All surgical procedures were carried out under isoflurane gas anesthesia (5% for induction; 1.5-3.0% for maintenance, craniectomy ˜15-30 min duration; craniectomy+CCI injury ˜25-45 min duration). An anesthesia chamber was used for induction and a nose cone was used for maintenance.
Anesthetized rats were mounted in a Kopf stereotaxic device (Model 900; Tujunga, CA), where the animal's head was held in place by non-traumatic ear bars and a bite bar. Anesthesia was maintained by nose cone while the head was shaved and sterilized with 70% ethanol and Betadine™ (Purdue Products L.P., Stamford, CT) antiseptic solution. Throughout surgery anesthesia levels were monitored closely and were frequently adjusted as need, based on heart rate, respiration rate and oxygen saturation. A homeothermic blanket control unit (Harvard Apparatus, Holliston, MA) was used to monitor body temperature and to prevent hypothermia throughout surgery.
Under aseptic conditions, the cranium and its bony landmarks including bregma (β) and lambda (λ) were exposed by making a midline incision along the scalp into the skin and fascia covering the skull. A 6 mm diameter craniectomy was centered on the midline at 2.5 mm anterior to β. The cortical impact was made at 2.5 mm anterior to β over the midline of the medial frontal cortex with an Impact One™ Stereotaxic CCI instrument (Leica, Buffalo Grove, IL), using a 5 mm impactor (bit size), traveling at 2.25 m/s (velocity), extending 3 mm below the cortical surface (impact depth) for 100 ms (dwell time). Sham-injured groups received the same surgical procedures up to and including craniectomy but no CCI injury. After surgery, the rats were placed on a heating pad, monitored closely and upon awakening were tested 30 min later for righting reflex to assess any immediate effects of craniectomy or CCI injury on righting ability, and then returned to their home cages.
Baseline blood draws were collected from all animals. […] Pregnyl® is a highly purified pyrogen-free preparation obtained from the urine of pregnant females. Each vial contains 10,000 USP units of sterile dried powder with 5 mg monobasic sodium phosphate and 4.4 mg dibasic sodium phosphate that is diluted in solvent containing water, 0.56% sodium chloride and 0.9% benzyl alcohol (www.drugs.com/pro/pregnyl.html).
Rats were anesthetized (between 9:00 a.m.-12:00 noon) and their tails placed in a 200 mL beaker filled with warm water (≤44° C.) for 5 min. The tail was clean with 70% alcohol, the minimal amount of the tail tip snipped with a blade, and/or the wound reopened by removal of the scab for subsequent bleeds, and ˜1 mL of whole blood was collected directly into EDTA tubes at baseline (PID-10) and at PID, 1, 11, 19 and 29. […] Animals were injected with Lactate Ringers solution (5 mL) for fluid resuscitation. At the terminal bleed (day 29), blood also was collected via heart puncture. Collected blood was immediately centrifuged at 4,000 g for 10-20 min and the plasma aliquoted into Eppendorf tubes for storage at −80° C.

[3] = test system: human embryonic stem cells (hESC); assay: hESC proliferation, trypan blue assay; format: cell-based; conditions: 6 d; E2 (10 nM), P4 (2 μM); compared to untreated control cells
Method: We therefore tested whether P4 was essential for the induction of NPC from hESC. hESC were treated with P4, E2 (which upregulates P4 receptor (PR) expression), or a combination of E2+P4.

With “11β-[p-(Dimethylamino)phenyl]-17α-(1-propynyl)estra-4,9-dien-17β-ol-3-one [RU-486]” the “nestin (immunoblot) in PR-antagonist treated structures” value ([1]; RU-486 20 μM) was “absence of nestin”, the neuroectodermal rosette formation ([1]; RU-486 20 μM for 11 days, in presence of P4) was “No rosettes were detected” and the “plasma P4 concentration” value ([2]; CCI injured animals with RU-486 pretreatment, PID 1) was 40.9 ± 10.0 ng/mL. For the same compound, the “plasma T concentration” value ([2]; CCI injured animals with RU-486 pretreatment, PID 11) was 4.5 ± 1.5 ng/mL, the “plasma T concentration” value ([2]; CCI injured animals with RU-486 pretreatment, PID 19) was 3.1 ± 1.1 ng/mL and the “effect on circulating 11-DOC and corticosterone” value ([2]; CCI injured animals, RU486 pretreatment) was “no significant effects”. The effect on corticosterone ([2]; Sham surgery, saline and hCG-treated animals, RU486 pretreatment (except PID 19 in Sham+hCG)) was “prevented Sham surgery-induced decreases in corticosterone through PID 29”, the “circulating 11-DOC” value ([2]; Sham+hCG rats with RU486 pretreatment (40 mg/kg i.p.), PID 1) was 282.4 ± 28.0 ng/mL and the “plasma P4 concentration” value ([2]; Sham+hCG with RU486 pretreatment, PID 29) was 8.5 ± 4.5 ng/mL. For the same compound, the “effect on 11-DOC” value ([2]; Sham+saline with RU486 pretreatment) was “preventing the Sham+saline treatment-induced decrease in 11-DOC through PID29”.

`C[C@]12CC[C@@H]3c4ccc(O)cc4CC[C@H]3[C@@H]1CC[C@@H]2O` [E2, estradiol] was tested, and the “decrease in rate of hESC proliferation” value [3] was 16%.

`CC(=O)[C@H]1CC[C@H]2[C@@H]3CCC4=CC(=O)CC[C@]4(C)[C@H]3CC[C@]12C` [P4, progesterone] was tested, and the “nestin expression (immunoblot)” value ([1]; hESC treated for 9 d, E2 (10 nM), P4 (2 μM)) was “increased the neuroectodermal marker nestin” and the “decrease in rate of hESC proliferation” value [3] was 29%.

Reference: patent US20240115662A1, “METHODS OF TREATING HYPOGONADOTROPIC HYPOGONADISM AND COGNITION IMPAIRMENT FOLLOWING A TRAUMATIC BRAIN INJURY” (WISCONSIN ALUMNI RESEARCH FOUNDATION, priority 2021, published 2024)
